Literature values as cited in patent US20230150906A1, “DESOXYSCALINE DERIVATIVES WITH MODIFIED MESCALINE-LIKE ACTION” (Mind Medicine, Inc., priority 2021, published 2023).
“Also recorded” adds a separate entry of the source.

Key:
[1] = biological target: serotonin 5-HT2A receptor (Homo sapiens, UniProt P28223)
5-HT2A receptor = 5-HT2A receptor (Homo sapiens, UniProt P28223)
D2 receptors = D2 receptors (Homo sapiens, UniProt P14416)
5-HT transporter (SERT) = 5-HT transporter (SERT) (Homo sapiens, UniProt P31645)
[2] = humans

Chain of 5-HT2A receptor (P28223 whole entry): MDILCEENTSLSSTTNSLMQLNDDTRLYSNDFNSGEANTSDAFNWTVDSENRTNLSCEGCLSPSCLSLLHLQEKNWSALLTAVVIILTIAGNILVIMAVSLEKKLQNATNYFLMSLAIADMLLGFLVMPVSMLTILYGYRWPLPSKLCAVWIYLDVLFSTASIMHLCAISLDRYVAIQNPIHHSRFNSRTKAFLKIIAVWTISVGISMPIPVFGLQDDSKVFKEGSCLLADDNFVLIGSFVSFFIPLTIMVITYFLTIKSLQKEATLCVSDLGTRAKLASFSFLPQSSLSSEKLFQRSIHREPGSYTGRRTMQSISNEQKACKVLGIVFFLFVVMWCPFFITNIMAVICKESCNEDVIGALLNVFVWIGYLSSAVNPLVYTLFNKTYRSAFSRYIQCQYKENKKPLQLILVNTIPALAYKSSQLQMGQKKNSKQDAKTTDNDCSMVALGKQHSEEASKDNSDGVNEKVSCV
Chain of 5-HT transporter (SERT) (P31645 whole entry, species assumed): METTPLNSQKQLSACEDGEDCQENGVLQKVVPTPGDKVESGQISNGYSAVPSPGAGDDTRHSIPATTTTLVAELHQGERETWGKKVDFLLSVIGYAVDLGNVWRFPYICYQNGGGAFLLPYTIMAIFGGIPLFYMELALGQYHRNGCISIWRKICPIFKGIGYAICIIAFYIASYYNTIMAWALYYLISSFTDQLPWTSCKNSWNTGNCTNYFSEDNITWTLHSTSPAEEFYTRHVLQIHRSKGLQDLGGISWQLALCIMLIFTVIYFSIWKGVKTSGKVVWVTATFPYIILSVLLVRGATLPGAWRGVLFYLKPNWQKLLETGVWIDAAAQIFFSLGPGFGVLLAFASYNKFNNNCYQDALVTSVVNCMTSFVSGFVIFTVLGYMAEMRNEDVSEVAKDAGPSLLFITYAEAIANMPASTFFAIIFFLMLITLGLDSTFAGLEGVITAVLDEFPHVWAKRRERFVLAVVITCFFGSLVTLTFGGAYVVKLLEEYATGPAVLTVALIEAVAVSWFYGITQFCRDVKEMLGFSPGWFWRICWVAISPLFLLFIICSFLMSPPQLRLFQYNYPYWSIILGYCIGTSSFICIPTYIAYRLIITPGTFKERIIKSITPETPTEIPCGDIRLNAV
Chain of D2 receptors (P14416 whole entry): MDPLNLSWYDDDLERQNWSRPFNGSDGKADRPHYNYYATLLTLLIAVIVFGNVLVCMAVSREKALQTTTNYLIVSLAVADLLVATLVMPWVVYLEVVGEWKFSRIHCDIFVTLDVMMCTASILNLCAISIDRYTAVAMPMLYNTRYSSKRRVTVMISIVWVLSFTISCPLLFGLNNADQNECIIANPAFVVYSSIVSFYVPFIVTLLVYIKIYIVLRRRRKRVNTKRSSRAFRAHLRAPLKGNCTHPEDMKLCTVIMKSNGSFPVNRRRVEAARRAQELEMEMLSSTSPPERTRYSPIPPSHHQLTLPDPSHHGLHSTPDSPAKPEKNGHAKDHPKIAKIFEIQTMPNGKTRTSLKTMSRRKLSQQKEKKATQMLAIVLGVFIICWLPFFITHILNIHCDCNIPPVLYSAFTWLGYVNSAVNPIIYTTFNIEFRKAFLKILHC
Chain of serotonin 5-HT2A receptor (P28223 whole entry): as the sequence (P28223 whole entry) above

COc1cc(CCN)cc(OC)c1OC [mescaline]
dose needed to induce a full psychedelic experience (humans; humans): 200 to 800 mg
time of peak of subjective effects (humans; humans, psychoactive doses): 4 h
time until subjective effects appear (humans; humans, psychoactive doses): ≤ 30 min
duration of subjective effects (humans; humans, psychoactive doses, dose-dependent): 10 to 16 h
5-HT2A receptor ligand strength [1]: very weak
activity at the 5-HT2A receptor (agonism / stimulation) (5-HT2A receptor): agonists
affinity for D2 receptors (D2 receptors): no affinity
interaction with the SERT (5-HT transporter (SERT)): do not interact
plasma half-life [2]: approximately 6 hours

CN(C)CCc1c[nH]c2ccccc12 [DMT, N,N-dimethyltryptamine]
activity at the 5-HT2A receptor (agonism / stimulation) (5-HT2A receptor): agonists

CCN(CC)C(=O)[C@@H]1C=C2c3cccc4[nH]cc(c34)C[C@H]2N(C)C1 [LSD, lysergic acid diethylamide]
activity at the 5-HT2A receptor (agonism / stimulation) (5-HT2A receptor): agonists; also recorded: potently stimulates
activity at D2 receptors (D2 receptors): has activity

CN(C)CCc1c[nH]c2cccc(O)c12 [Psilocin, psilocin]
activity at the 5-HT2A receptor (agonism / stimulation) (5-HT2A receptor): stimulates
interaction with the SERT (5-HT transporter (SERT)): inhibits

COc1cc(CCN)cc(OC)c1C [DESOXY, 3,5-dimethoxy-4-methylphenethylamine]
psychoactive effects in human (humans; human): has shown psychoactive effects in human
